In series [1] the test system is Candida parapsitosis A. 7330. Briefly: In vitro antifungal activity, microbroth dilution MIC. It is filed as cell-based. Conditions: Candida, 4 to 48 hours. A digest of the protocol: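 Broth microdilution adapted from NCCLS M27, in RPMI-1640 with 0.165 M MOPS, pH 7.0. Yeast or mould inoculum at 2×10^3 CFU/ml was mixed 1:1 with DMSO-derived compound solutions (200 to 0.10 μg/ml before mixing) and incubated at 35 °C for 4 to 48 h. MIC was the concentration showing no growth.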
For orientation: Dilution methods test growth across graded concentrations, often in twofold steps.

In the next series the test system is mouse. Conditions: oral; cited from earlier work.
Where [2] appears, read: A.7330, RPMI-1640, 35° C., no growth observed, read-out: Minimal inhibitory concentration(MIC), C. parapsitosis A. 7330.
Where [3] appears, read: C. parapsitosis A. 7330, RPMI-1640, 35° C., read-out: Minimal inhibitory concentration (MIC).

SMILES strings stand for the structures. Values after ≈ are worked out from the molar mass of the structure shown. Like-named read-outs stand apart in the source and are kept apart here.

The values that follow come from US6376497B1, “Antifungal azole derivatives having a fluorinated vinyl group and process for preparing same” (Korea Research Institute of Chemical Technology, priority 1999, dated 2002).

Broadly, the LD50 is the dose at which mortality reaches 50%.

For the compound `OC(Cn1cncn1)(Cn1cncn1)c1ccc(F)cc1F` [fluconazole, reference compound], the MIC in series [1] (setting [2]) and in series [1] (setting [3]) was 12.5 µg/mL (≈ 40.8 µM) throughout.
`CCC(C)n1ncn(-c2ccc(N3CCN(c4ccc(OCC5COC(Cn6cncn6)(c6ccc(Cl)cc6Cl)O5)cc4)CC3)cc2)c1=O` (centres unmarked) [itraconazole, reference compound]: the LD50 with mouse was 320 mg/kg. The MIC in series [1] (setting [2]) and in series [1] (setting [3]) was 0.78 µg/mL (≈ 1.11 µM) in each case.
